{"source": "patent US4731375A", "about": "“Coumarin derivatives and antiallergic agents containing the same” (Kaken Pharmaceutical Co., Ltd., priority 1984, dated 1988)", "key": {"[1]": {"tested_on": "passive cutaneous anaphylaxis by homocytotropic antibody (HTA)", "test": "Passive Cutaneous Anaphylaxis (PCA) test in rat (Test Example 1)", "assay_type": "in vivo, rat (Wistar)", "conditions": "0.5 h, 72 hour PCA, intravenous just before antigen, sacrificed 30 minutes after antigen challenge, read-out: ID50 (fifty % inhibitory dose for the leaked amount of the pigment)", "procedure": "(§1) Fifty % inhibitory dose (ID50) in Passive Cutaneous Anaphylaxis (PCA) test in rat (Test Example 1) and Minimal Lethal Dose (MLD) in intraperitoneal acute toxicity test in mouse (Test Example 2) were determined for the typical compounds of the present invention as follows:\nThe antiallergic activities of the chromene derivatives of the present invention were tested in passive cutaneous anaphylaxis (hereinafter referred to as \"PCA\") by homocytotropic antibody (hereinafter referred to as \"HTA\").\nDNP-As(2,4-dinitro phenyl-coupled Ascaris extract) was prepared according to the method by Strejan et al. (J. Immunol. Vol. 98, P 893, (1967)) and by Eisen (J. Amer. Chem. Soc. Vol. 75, P 4593, (1953)) to be used as antigen. Antiserum containing HTA was prepared by the method according to Tada and Okumura (J. Immunol. Vol. 106, P 1002, (1972)) as follows: i.e. spleen was taken out from Wistar female rat weighing 180 to 200 g and several days after 1 mg of DNP-As and 1×10^10 of Bordetella pertussis vaccine were injected into four footpads of the rat to induce senitization. After five days, again 0.5 mg of DNP-As was solely injected into the dorsal muscles. Eight days after priming, blood was taken by paracentesis of aorta under anesthetic condition with ether and the obtained antiserum was stored at -80° C.\nTiter of the stored antiserum was determined by 72 hour PCA method in rat as described in the following item (2). The maximal dilution of the antiserum which can give a spot with a diameter of around 5 mm was usually 500 times.\nThe diluted antiserum (×30) was injected 0.05 ml/site intradermally into the shaved back of normal Wistar rat weighing 140 to 160 g. After 72 hours, 1 ml of physiological saline containing 2 mg of DNP-As and 2.5 mg of Evans blue was injected intravenously.\nTest compound was dissolved in 0.5% aqueous solution of KHCO3, which was administered intravenously in an amount of 2 ml/kg just before the administration of the antigen. The animal was sacrificed 30 minutes after antigen challenge and the cutis was peeled off. The intensity of PCA was evaluated for the measurment of the leaked amount of the pigment. The leaked pigment was extracted according to the method by Harada et al. (Jpn. J. Allergol., Vol. 15, P 1, (1966)) and the leaked amount was measured by spectrophotometry. Fifty % inhibitory dose for the leaked amount of the pigment was regarded as ID50 value of the test compound."}, "mouse": {"tested_on": "mouse", "test": "intraperitoneal acute toxicity test in mouse (Test Example 2)", "assay_type": "in vivo, mouse (Slc: ddy male)", "conditions": "14 days observation, five mice per group", "procedure": "as §1\nThe intraperitoneal actute toxicity test was carried out using mouse for the chromene derivatives of the present invention. Normal Slc: ddy male 4 weeks mice were preliminarily breeded for a week at a breeding room and those weighing 25 to 27 g were subjected to the test. The test compounds were used by suspending in 0.5% aqueous solution of sodium carboxymethylcellulose. Ten ml/kg was administered intraperitoneally through the right abdomen of the animal using the prescribed needle (five mice per group). The lethal dose was presumed by the observation during 14 days after administration."}, "[2]": {"tested_on": "experimental asthma model of animals", "test": "experimental asthma model of animals", "assay_type": "in vivo"}}, "data": [{"smiles": "O=C(O)COc1cccc2cc(-c3nnn[nH]3)c(=O)oc12", "note": "[Compound A, [2-oxo-3-(1H-tetrazole-5-yl)-2H-chromene-8-yloxy]acetic acid]", "values": [{"measurement": "ED50", "setting": "[1]", "result": 0.5, "unit": "mg/kg"}, {"measurement": "MLD (Minimal Lethal Dose)", "setting": "mouse", "result": "> 1000", "unit": "mg/kg"}]}, {"smiles": "O=C(O)CCCOc1cccc2cc(-c3nnn[nH]3)c(=O)oc12", "note": "[Compound B, 4-[2-oxo-3-(1H-tetrazole-5-yl)-2H-chromene-8 yloxy]butyric acid]", "values": [{"measurement": "ED50", "setting": "[1]", "result": 0.1, "unit": "mg/kg"}, {"measurement": "MLD (Minimal Lethal Dose)", "setting": "mouse", "result": "> 1600", "unit": "mg/kg"}, {"measurement": "inhibitory effect in experimental asthma model", "setting": "[2]", "result": "inhibitory effect in high degree"}]}, {"smiles": "O=C(O)CCCOc1ccc2oc(=O)c(-c3nnn[nH]3)cc2c1", "note": "[Compound C, 4-[2-oxo-3-(1H-tetrazole-5-yl)-2H-chromene-6-yloxy]butyric acid]", "values": [{"measurement": "ED50", "setting": "[1]", "result": 0.1, "unit": "mg/kg"}, {"measurement": "MLD (Minimal Lethal Dose)", "setting": "mouse", "result": "> 1500", "unit": "mg/kg"}]}, {"smiles": "O=C(O)CCCCCOc1cccc2cc(-c3nnn[nH]3)c(=O)oc12", "note": "[Compound D, 6-[2-oxo-3-(1H-tetrazole-5-yl)-2H-chromene-8-yloxy]hexanoic acid]", "values": [{"measurement": "ED50", "setting": "[1]", "result": 0.16, "unit": "mg/kg"}, {"measurement": "MLD (Minimal Lethal Dose)", "setting": "mouse", "result": "> 1600", "unit": "mg/kg"}]}, {"smiles": "O=C(O)CCCCCOc1ccc2cc(-c3nnn[nH]3)c(=O)oc2c1", "note": "[Compound E, 6-[2-oxo-3-(1H-tetrazole-5-yl)-2H-chromene-7-yloxy]hexanoic acid]", "values": [{"measurement": "ED50", "setting": "[1]", "result": 0.2, "unit": "mg/kg"}, {"measurement": "MLD (Minimal Lethal Dose)", "setting": "mouse", "result": "> 1500", "unit": "mg/kg"}]}, {"smiles": "O=C(O)CCCCCOc1ccc2oc(=O)c(-c3nnn[nH]3)cc2c1", "note": "[Compound F, 6-[2-oxo-3-(1H-tetrazole-5-yl)-2H-chromene-6-yloxy]hexanoic acid]", "values": [{"measurement": "ED50", "setting": "[1]", "result": 0.16, "unit": "mg/kg"}, {"measurement": "MLD (Minimal Lethal Dose)", "setting": "mouse", "result": "> 1600", "unit": "mg/kg"}]}, {"smiles": "O=C(O)CCCCCOc1cccc2oc(=O)c(-c3nnn[nH]3)cc12", "note": "[Compound G, 6-[2-oxo-3-(1H-tetrazole-5-yl)-2H-chromene-5-yloxy]hexanoic acid]", "values": [{"measurement": "ED50", "setting": "[1]", "result": 0.2, "unit": "mg/kg"}, {"measurement": "MLD (Minimal Lethal Dose)", "setting": "mouse", "result": "> 1500", "unit": "mg/kg"}]}]}
